Measured values reported in patent US11453671B2, “Pyrazolopyrimidine inhibitors of JAK kinases and uses thereof” (Genentech, Inc., priority 2020, dated 2022).
Read-outs that look alike come from different tables or passages of the source.

Experiments:
[1] = test system: JAK1: IL-13-stimulated STAT6 phosphorylation in BEAS-2B cells; assay: P-STAT6 BEAS-2B+IL-13 Cell Assay; type: cell-based, human; conditions: IL-13 stimulation, read-out: Cellular JAK1 PSTAT6 BEAS2B + IL13 IC50
Protocol: P-STAT6 BEAS-2B+IL-13 Cell Assay
In order to study the effect of JAK1 inhibitors in a cell line that is relevant to the cell biology of human asthma, an IL-13-stimulated STAT6 phosphorylation assay in the human lung bronchial epithelial BEAS-2B cell line was developed.
BEAS-2B cells (ATCC® CRL-9609™) were grown in Bronchial Epithelial Growth Medium (BEGM) (Lonza Catalog No. CC-3170; Walkersville, Md.; or PromoCell Catalog No. C-21060; Heidelberg, Germany). Test compound stock solutions (0.5 mM in DMSO) were serially diluted 1:2 in DMSO to generate a 10-point concentration curve (at 500×test concentration), which was further diluted by a 50-fold dilution step in BEGM to generate a 10× concentration curve (in 2% DMSO). Cells were plated at 100,000 cells/well in 200 μL of BEGM in 96-well plates and incubated for 48 hours at 37° C. in a humidified incubator. Medium was aspirated from the cells and replaced with 70 μL of fresh BEGM. Diluted test compound (10 μL; or 2% DMSO in assay medium) was added to the cells, and the plates were incubated for 1 hour at 37° C. in a humidified incubator. Twenty μL of 250 ng/mL human recombinant IL-13 (Bio Techne Catalog No. 213-ILB) was then added to the cells and incubated for 15 minutes at 37° C. Medium was aspirated from the cells and 60 μL of ice-cold 1×cell lysis buffer (Cell Signaling Technologies; Catalog No. 9803S) containing 1 mM PMSF was added to the cells. Assay plates were incubated at −80° C. for at least 1 hour. P-STAT6 was measured by coating GAR plates (MSD; Catalog No. L45RA-1) with rabbit anti-human total STAT6 antibody (Cell Signaling Technologies; Catalog No. 9362S), incubating the cell lysates in the coated plates overnight at 4° C., and then detecting with mouse anti-phospho-STAT6 (Tyr641) Clone 16E12 antibody (Millipore; Catalog No. 05-590, custom labeled by MSD with SULFO-tag) using standard MSD plate processing, washing, and detection protocols. Plates were read on the MESO SECTOR S600. Data Analysis
Data analysis was performed by subtracting negative control values from all wells and determining percent of control using the positive control values; the IC50 was determined with a four-parameter logistic fit model as shown in Equation 4.

[2] = molecular target: T1, recombinant human JAK1 kinase domain protein (Residues 854-1154) (Homo sapiens, UniProt P23458); assay: JAK1 biochemical assay (microfluidic mobility shift, peptide phosphorylation); conditions: 25 μM ATP, 1 nM total JAK1; read-out: Enzyme JAK1 Ki
T1 construct: human JAK1 kinase domain protein (Residues 854-1154); purchased Proteros Biostructures GmbH (Martinsried, Germany); host or cells: insect cells
From the text: JAK1 and JAK2 Biochemical Assays

[3] = molecular target: Recombinant human JAK2 kinase domain protein (Residues 812-1132) (Homo sapiens, UniProt O60674); assay: JAK2 biochemical assay (microfluidic mobility shift, peptide phosphorylation); conditions: Enzyme JAK2 Ki (nM), 25 μM ATP, 0.2 nM total JAK2
Chain of Recombinant human JAK2 kinase domain protein (Residues 812-1132) (O60674 812-1132): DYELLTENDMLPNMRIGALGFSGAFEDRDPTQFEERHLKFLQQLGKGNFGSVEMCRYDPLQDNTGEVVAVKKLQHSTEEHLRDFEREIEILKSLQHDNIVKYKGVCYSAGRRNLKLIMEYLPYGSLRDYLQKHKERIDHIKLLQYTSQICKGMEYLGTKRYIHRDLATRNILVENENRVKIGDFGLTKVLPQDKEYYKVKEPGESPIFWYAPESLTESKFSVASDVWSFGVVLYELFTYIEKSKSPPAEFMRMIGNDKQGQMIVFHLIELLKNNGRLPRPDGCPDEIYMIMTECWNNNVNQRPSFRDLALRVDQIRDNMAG

T1 sequence (P23458 854-1154): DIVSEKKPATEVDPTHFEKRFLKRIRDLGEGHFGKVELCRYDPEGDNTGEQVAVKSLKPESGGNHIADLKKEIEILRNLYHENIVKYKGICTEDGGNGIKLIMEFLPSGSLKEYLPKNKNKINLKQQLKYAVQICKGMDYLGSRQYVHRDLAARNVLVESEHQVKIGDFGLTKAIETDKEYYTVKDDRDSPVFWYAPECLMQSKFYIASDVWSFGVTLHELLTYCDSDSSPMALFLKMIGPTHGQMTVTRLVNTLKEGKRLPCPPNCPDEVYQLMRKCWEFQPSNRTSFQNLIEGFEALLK

| Compound | IC50 ([1]; Homo sapiens, BEAS-2B) [nM] | Ki [2] [nM] | Ki [3] [nM] | IC50 [1] [nM] |
| --- | --- | --- | --- | --- |
| CN1CCC(S(=O)(=O)c2ccc(OC(F)F)c(-c3nn(C)cc3NC(=O)c3cnn4cccnc34)c2)C1 (single isomer, unassigned) [Example 19, N-[3-[2-(difluoromethoxy)-5-(1-methylpyrrolidin-3-yl)sulfonyl-phenyl]-1-methyl-pyrazol-4-yl]pyrazolo[1,5-a]pyrimidine-3-carboxamide] | 120 | 4 | 1.7 |  |
| CN1CCC(S(=O)(=O)c2ccc(OC(F)F)c(-c3nn(C)cc3NC(=O)c3cnn4cccnc34)c2)C1 (single isomer, unassigned) [Example 20, N-[3-[2-(difluoromethoxy)-5-(1-methylpyrrolidin-3-yl)sulfonyl-phenyl]-1-methyl-pyrazol-4-yl]pyrazolo[1,5-a]pyrimidine-3-carboxamide] |  | 1.5 | 0.65 | 65 |
| CS(=O)(=O)c1ccc(OC(F)F)c(-c2nn(C3CCOC3=O)cc2NC(=O)c2cnn3cccnc23)c1 (single isomer, unassigned) [Example 32, N-[3-[2-(difluoromethoxy)-5-methylsulfonyl-phenyl]-1-(2-oxotetrahydrofuran-3-yl)pyrazol-4-yl]pyrazolo[1,5-a]pyrimidine-3-carboxamide] | 120 | 1.1 | 0.62 |  |
| CS(=O)(=O)c1ccc(OC(F)F)c(-c2nn(C3CCOC3=O)cc2NC(=O)c2cnn3cccnc23)c1 (single isomer, unassigned) [Example 33, N-[3-[2-(difluoromethoxy)-5-methylsulfonyl-phenyl]-1-(2-oxotetrahydrofuran-3-yl)pyrazol-4-yl]pyrazolo[1,5-a]pyrimidine-3-carboxamide] |  | 0.4 | 0.23 | 99 |
| CC(O)C(C)S(=O)(=O)c1ccc(OC(F)F)c(-c2nn(C)cc2NC(=O)c2cnn3cccnc23)c1 (single isomer, unassigned) [Example 70, N-[3-[2-(difluoromethxoy)-5-(2-hydroxy-1-methyl-propyl)sulfonyl-phenyl]-1-methyl-pyrazol-4-yl]pyrazolo[1,5-a]pyrimidine-3-carboxamide] |  | 1 | 0.33 | 75 |
| CC(O)C(C)S(=O)(=O)c1ccc(OC(F)F)c(-c2nn(C)cc2NC(=O)c2cnn3cccnc23)c1 (single isomer, unassigned) [Example 71, N-[3-[2-(difluoromethoxy)-5-(2-hydroxy-1-methyl-propyl)sulfonyl-phenyl]-1-methyl-pyrazol-4-yl]pyrazolo[1,5-a]pyrimidine-3-carboxamide] |  | 1.4 | 0.46 | 110 |
| CN1CCCC1CCn1cc(S(=O)(=O)c2ccc(OC(F)F)c(-c3nn(C)cc3NC(=O)c3cnn4cccnc34)c2)cn1 (stereo in doubt) [Example 57, N-[3-[2-(difluoromethoxy)-5-[1-[2-[(2S)-1-methylpyrrolidin-2-yl]ethyl]pyrazol-4-yl]sulfonyl-phenyl]-1-methyl-pyrazol-4-yl]pyrazolo[1,5-a]pyrimidine-3-carboxamide] | 54 | 0.57 | 0.54 |  |
| CN1CC(S(=O)(=O)c2ccc(OC(F)F)c(-c3nn(C)cc3NC(=O)c3cnn4cccnc34)c2)C1 [Example 3, N-[3-[2-(difluoromethoxy)-5-(1-methylazetidin-3-yl)sulfonyl-phenyl]-1-methyl-pyrazol-4-yl]pyrazolo[1,5-a]pyrimidine-3-carboxamide] | 58 | 2 | 0.66 |  |
| Cn1cc(NC(=O)c2cnn3cccnc23)c(-c2cc(S(=O)(=O)C3CNC3)ccc2OC(F)F)n1 [Example 4, N-[3-[5-(azetidin-3-ylsulfonyl)-2-(difluoromethoxy)phenyl]-1-methyl-pyrazol-4-yl]pyrazolo[1,5-a]pyrimidine-3-carboxamide] | 180 | 1.4 | 0.6 |  |
| Cn1cc(NC(=O)c2cnn3cccnc23)c(-c2cc(S(=O)(=O)CCN)ccc2OC(F)F)n1 [Example 8, N-[3-[5-(2-aminoethylsulfonyl)-2-(difluoromethoxy)phenyl]-1-methyl-pyrazol-4-yl]pyrazolo[1,5-a]pyrimidine-3-carboxamide] | 92 | 0.82 | 0.48 |  |
| Cn1cc(NC(=O)c2cnn3cccnc23)c(-c2cc(S(=O)(=O)C3CCNC3)ccc2OC(F)F)n1 (stereo not drawn) [Example 10, N-[3-[2-(difluoromethoxy)-5-pyrrolidin-3-ylsulfonyl-phenyl]-1-methyl-pyrazol-4-yl]pyrazolo[1,5-a]pyrimidine-3-carboxamide] | 52 | 0.95 | 0.6 |  |
| Cn1cc(NC(=O)c2cnn3cccnc23)c(-c2cc(S(=O)(=O)c3cccc(CCN)c3)ccc2OC(F)F)n1 [Example 18, N-[3-[5-[3-(2-aminoethyl)phenyl]sulfonyl-2-(difluoromethoxy)phenyl]-1-methyl-pyrazol-4-yl]pyrazolo[1,5-a]pyrimidine-3-carboxamide] | 290 | 0.43 | 0.4 |  |
| CC(=O)N1CC(S(=O)(=O)c2ccc(OC(F)F)c(-c3nn(C)cc3NC(=O)c3cnn4cccnc34)c2)C1 [Example 27, N-[3-[5-(1-acetylazetidin-3-yl)sulfonyl-2-(difluoromethoxy)phenyl]-1-methyl-pyrazol-4-yl]pryazolo[1,5-a]pyrimidine-3-carboxamide] | 99 | 0.59 | 0.26 |  |
| N#CCn1cc(NC(=O)c2cnn3cccnc23)c(-c2cc(S(=O)(=O)C(F)F)ccc2OC(F)F)n1 [Example 29, N-[1-(cyanomethyl)-3-[2-(difluoromethoxy)-5-(difluoromethylsulfonyl)phenyl]pyrazol-4-yl]pyrazolo[1,5-a]pyrimidine-3-carboxamide] | 25 | 0.58 | 0.37 |  |
| Cn1cc(NC(=O)c2cnn3cccnc23)c(-c2cc(S(N)(=O)=O)ccc2OC(F)F)n1 [Example 31, N-[3-[2-(difluoromethoxy)-5-sulfamoyl-phenyl]-1-methyl-pyrazol-4-yl]pyrazolo[1,5-a]pyrimidine-3-carboxamide] | 51 | 0.84 | 0.38 |  |
| CC(C)OC(=O)n1cc(NC(=O)c2cnn3cccnc23)c(-c2cc(S(C)(=O)=O)ccc2OC(F)F)n1 [Example 34, isopropyl 3-[2-(difluoromethoxy)-5-methylsulfonyl-phenyl]-4-(pyrazolo[1,5-a]pyrimidine-3-carbonylamino)pyrazole-1-carboxylate] | 21 | 0.31 | 0.29 |  |
| C[C@H](O)Cn1cc(S(=O)(=O)c2ccc(OC(F)F)c(-c3nn(C)cc3NC(=O)c3cnn4cccnc34)c2)cn1 [Example 38, N-[3-[2-(difluoromethoxy)-5-[1-[(2S)-2-hydroxypropyl]pyrazol-4-yl]sulfonyl-phenyl]-1-methyl-pyrazol-4-yl]pyrazolo[1,5-a]pyrimidine-3-carboxamide] | 89 | 0.34 | 0.25 |  |
| Cn1cc(NC(=O)c2cnn3cccnc23)c(-c2cc(S(=O)(=O)C(CF)CF)ccc2OC(F)F)n1 [Example 39, N-[3-[2-(difluoromethoxy)-5-[2-fluoro-1-(fluoromethyl)ethyl]sulfonyl-phenyl]-1-methyl-pyrazol-4-yl]pyrazolo[1,5-a]pyrimidine-3-carboxamide] | 230 | 1.5 | 0.53 |  |
| Cn1cc(NC(=O)c2cnn3cccnc23)c(-c2cc(S(=O)(=O)c3ccc(=O)[nH]c3)ccc2OC(F)F)n1 [Example 43, N-[3-[2-(difluoromethoxy)-5-[(6-oxo-1H-pyridin-3-yl)sulfonyl]phenyl]-1-methyl-pyrazol-4-yl]pyrazolo[1,5-a]pyrimidine-3-carboxamide] | ≥ 1000 | 0.5 | 0.27 |  |
